The values that follow are results of earlier work, collected in patent publication US12691176B2, “Ionic nanovesicle suspension and biocide prepared therefrom” (priority 2015, dated 2026).

For one data set, the system named is bacteria. Conditions: very low concentrations.

Take Polyaminopropyl biguanide [PAPB]: the bactericidal concentration with bacteria is 10 mg/L. Also, in the data set with fungi, the fungicidal activity entry is “fungicidal”.
